The experiment concerns the target Peroxisome proliferator-activated receptor gamma (Homo sapiens) (UniProt P37231). Nature of the experiment: Agonist activity at human PPARgamma at 100 uM by GAL4 transactivation assay relative to Rosiglitazone.

For `CCO[C@@H](Cc1ccc(OCCc2ccc(OS(C)(=O)=O)cc2)cc1)C(=O)O` [(2S)-2-ethoxy-3-(4-{2-[4-(methanesulfonyloxy)phenyl]ethoxy}phenyl)propanoic acid], the EC50 (usually the midpoint of the concentration-response curve) came out at 0.037 µM. Take `COC(=O)C(Cc1ccc(OCCN2CCC(C)(C)c3cc(C(N=O)c4ccccc4)ccc32)cc1)C(=O)OC` (centres undefined) [dimethyl 2-(4-(2-(6-((hydroxyimino)(phenyl)methyl)-4,4-dimethyl-3,4-dihydroquinolin-1(2H)-yl)ethoxy)benzyl)malonate]: the EC50 turned out to be 0.195 µM.

Take `COC(=O)C(Cc1ccc(OCCN2CCC(C)(C)c3cc(C(=O)c4ccccc4)ccc32)cc1)C(=O)OC` [dimethyl 2-(4-(2-(6-benzoyl-4,4-dimethyl-3,4-dihydroquinolin-1(2H)-yl)ethoxy)benzyl)malonate]: the EC50 was 0.152 µM. `CCOC(=O)C(Cc1ccc(OCCN2CCC(C)(C)c3cc(C(N=O)c4ccccc4)ccc32)cc1)OCC` (centres undefined) [ethyl 2-ethoxy-3-(4-(2-(6-((hydroxyimino)(phenyl)methyl)-4,4-dimethyl-3,4-dihydroquinolin-1(2H)-yl)ethoxy)phenyl)propanoate] yielded a concentration giving a half-maximal response (EC50) of 0.048 µM.

Values taken from BindingDB's records for doi:10.1016/j.bmcl.2008.01.067 (Spot-Ea3857, 2008).
